Experiments:
[1] = Antioxidant activity assessed as […] radical scavenging activity by spectrophotometric method relative to control; assay type: functional; set-up: concentration or dose not given beside the values
[2] = Antioxidant activity assessed as inhibition of […] radical by spectrophotometric method; assay type: functional

Row | SMILES | Activity [1] | IC50 [2]
1 | Cc1oc2cc(OCC(O)CSC(=S)N3CCN(c4ccc(F)cc4)CC3)ccc2c(=O)c1C (stereo not given) | 24.8% | 2040 µM
2 | Cc1oc2cc(OCC(O)CSC(=S)N3CCN(C(c4ccccc4)c4ccccc4)CC3)ccc2c(=O)c1C (stereo not given) | 30.9% | 1620 µM
3 | CCN(CC)C(=S)SCC(O)COc1ccc2c(=O)c(C)c(C)oc2c1 (stereo not given) | 29.5% | 1710 µM
4 | Cc1oc2cc(OCC(O)CSC(=S)N3CCN(c4ccccc4)CC3)ccc2c(=O)c1C (stereo not given) | 24.8% | 2240 µM
5 | Cc1oc2cc(OCC(O)CSC(=S)N3CCC(Cc4ccccc4)CC3)ccc2c(=O)c1C (stereo not given) | 31.8% | 1570 µM
6 | O=C1O[C@H]([C@@H](O)CO)C(O)=C1O [ASCORBIC ACID] | 30.4% | 1640 µM
7 | Cc1oc2cc(OCC(O)CSC(=S)N3CCOCC3)ccc2c(=O)c1C (stereo not given) | 35.6% | 1400 µM
8 | COc1ccccc1N1CCN(C(=S)SCC(O)COc2ccc3c(=O)c(C)c(C)oc3c2)CC1 (stereo not given) | 31.6% | 1590 µM
9 | Cc1oc2cc(OCC(O)CSC(=S)N3CCN(Cc4ccc5c(c4)OCO5)CC3)ccc2c(=O)c1C (stereo not given) | 36.8% | 1380 µM
10 | Cc1oc2cc(OCC(O)CSC(=S)N3CCN(C)CC3)ccc2c(=O)c1C (stereo not given) | 29.4% | 1720 µM
